Assay results reported in article PMC10741027, “Risk Assessment of Psychotropic Drugs on Mitochondrial Function Using In Vitro Assays” (Biomedicines, 2023).
Read-outs that look alike come from different tables or passages of the source.

How the values were obtained:
[1] = literature values, plasma or serum of adult humans when possible; ref 68-88 (per drug, Table 2 Cmax Reference); cited from earlier work
[2] = tested on: HepG2 cells; assay: Glu/Gal assay: cellular ATP (CellTiter-Glo) after 24 h in glucose or galactose media; details: for Effect on cell viability / ATP in Glu and Gal media (in words): 24 h incubation, top concentration; for AC50 / minimal effective concentration: Homo sapiens, HepG2, 24 h
[3] = tested on: HepG2 cells; assay: Acute extracellular flux (AEF) assay in intact HepG2 cells (Seahorse XFe96); assay type: cell-based, human; details: Homo sapiens
[4] = tested on: CI-linked respiration; details: read-out: CI-linked respiration IC50, cited from earlier work
[5] = tested on: CII-linked respiration; details: read-out: CII-linked respiration IC50, cited from earlier work
[6] = tested on: rPFO permeabilized HepG2 cells; assay: Mitochondrial respiratory complexes in rPFO permeabilized HepG2 cells (Seahorse XF); details: for AC50: Homo sapiens, HepG2, read-out: Pyruvate Respiration AC50
[7] = tested on: respiratory CI; design: method as in PMID 9309697; details: human brain cortex; read-out: CI inhibition IC50; cited from earlier work
[8] = tested on: rat liver mitochondria (CII-linked respiration); assay: High-resolution respirometry, MMP and ROS in isolated rat liver mitochondria (Oroboros O2k); assay type: biochemical; details: for % MMP / % O2 consumption: basal succinate-driven respiration, normalized to control; for Mode of action on respiration in isolated RLM (in words): CII-linked respiration
Experimental: Mitochondria were isolated from adult Wistar Rat liver. […] The liver was homogenized with 10 passes in a loose-fitting homogenizer, followed by 10 passes in a tight-fitting homogenizer, and filtered through muslin. The tissue homogenate was then centrifuged at 1000× g for 10 min at 4 °C and the supernatants were further centrifuged at 10,000× g for 10 min. The centrifugation steps were repeated, preserving the pellet. […] Protein concentration was determined using the Bradford method with bovine serum albumin as the standard. The Oroboros® Oxygraph-2K (Oroboros Instruments, Innsbruck, Austria) was used to simultaneously analyze high-resolution respirometry and mitochondrial membrane potential (MMP). […] At the beginning of each experiment, the O2k chambers were filled with 2 mL of reaction buffer (200 mM sucrose, 25 mM KCl, 5 mM MgCl2, 4 mM KH2PO4, 5 mM MOPS, pH 7.4) and equilibrated with air at 37 °C. During the experiments, the incubation chambers were kept at constant temperature by Peltier control (±0.001 °C) and the medium was stirred using white PVDF-coated stirrers (750 rpm). […] This was followed by serial additions of the drugs to assess their dose-dependent effect on the MMP and mitochondrial respiration. Injection of RLM results in an uptake of safranin and a corresponding decline in the fluorescence signal.

[9] = HepG2, minimum effective concentration crossing vehicle control threshold, read-out: MEC ATP Production
[10] = HepG2, minimum effective concentration crossing vehicle control threshold, read-out: MEC ECAR
[11] = HepG2, minimum effective concentration crossing vehicle control threshold, read-out: MEC OCR
[12] = HepG2, minimum effective concentration crossing vehicle control threshold, read-out: MEC Reserve Capacity
[13] = HepG2, concentration at which 50% maximum effect is observed, read-out: AC50 ATP Production
[14] = HepG2, concentration at which 50% maximum effect is observed, read-out: AC50 ECAR
[15] = HepG2, concentration at which 50% maximum effect is observed, read-out: AC50 OCR
[16] = HepG2, concentration at which 50% maximum effect is observed, read-out: AC50 Reserve Capacity
[17] = isolated mitochondria, partial inhibition
[18] = HepG2, minimum effective concentration crossing vehicle control threshold, read-out: MEC Proton Leak
[19] = HepG2, concentration at which 50% maximum effect is observed, read-out: AC50 Proton Leak
[20] = HepG2, read-out: AC50 ATP Production
[21] = HepG2, read-out: AC50 Proton Leak
[22] = HepG2, read-out: AC50 Reserve Capacity

SMILES	Cmax [1]	minimal effective concentration [3, 9]	minimal effective concentration [3, 11]	minimal effective concentration [3, 12]	AC50 [3, 13]	AC50 [3, 14]	AC50 [3, 15]	AC50 [3, 16]	AC50 ([2]; read-out: Gal AC50)	minimal effective concentration ([2]; read-out: Gal MEC)	minimal effective concentration [3, 18]	AC50 [3, 19]	AC50 ([2]; read-out: Glu AC50)	minimal effective concentration ([2]; read-out: Glu MEC)	further results
CCN1CCCC1CNC(=O)c1cc(S(=O)(=O)CC)c(N)cc1OC (stereo not drawn) [Amisulpride]	2560 nM														Effect on cell viability / ATP in Glu and Gal media (in words) [2]: did not show any effect on ATP production in any of the media conditions
O=C1CCc2ccc(OCCCCN3CCN(c4cccc(Cl)c4Cl)CC3)cc2N1 [Aripiprazole]	700 nM	3.49 µM	2.06 µM	0.344 µM	> 10 µM	> 10 µM	> 10 µM	> 10 µM	9.17 µM	5.67 µM					minimal effective concentration [3, 10]: 9.2 µM
NC(=O)N1c2ccccc2C=Cc2ccccc21 [Carbamazepine]	6300 nM	165 µM	13.1 µM	137 µM	363 µM	> 600 µM	> 600 µM	> 190 µM	> 600 µM	408 µM	97 µM	> 600 µM	> 600 µM		IC50 [4, 17]: 353 µM; IC50 [5, 17]: 182 µM
CN(C)CCCN1c2ccccc2Sc2ccc(Cl)cc21 [Chlorpromazine]	900 nM	94.2 µM	73.4 µM	78.4 µM	> 100 µM	> 100 µM	> 100 µM	> 100 µM	16.9 µM	10.5 µM	31 µM	> 100 µM	15.9 µM	10.7 µM	IC50 ([4]; pig brain mitochondria): 116 µM; Most sensitive mechanism / response in permeabilized HepG2 assay (OCR) ([6]; in words): did not show a significant response; minimal effective concentration [3, 10]: 15.6 µM; IC50 [7]: 400 µM; % MMP ([8]; 20 μM): 88%; % O2 consumption ([8]; 20 μM): 111%; % MMP ([8]; 50 μM): 79%; % O2 consumption ([8]; 50 μM): 125%; % MMP ([8]; 100 μM): 72%; % O2 consumption ([8]; 100 μM): 131%; Mode of action on respiration in isolated RLM (in words) [8]: uncoupler of OXPHOS; Mode of action on respiration in isolated RLM (in words) ([8]; listed as chlorpromazine): uncoupler in basal respiration and an ETC inhibitor under uncoupled respiration; IC50 ([8]; CII-linked, succinate + rotenone, stimulated with 0.25 µM CCCP, 50–400 µM, read-out: IC50 uncoupled respiration): 135 µM; ROS production ([8]; uncoupled respiration, increasing concentrations): reduction in the production of ROS
CN(C)CCCC1(c2ccc(F)cc2)OCc2cc(C#N)ccc21 (stereo not drawn) [Citalopram]	100 nM				> 10 µM	> 10 µM	> 10 µM	> 10 µM	> 10 µM	7.11 µM	7.17 µM	> 10 µM	> 10 µM	4.43 µM	reduction in cell viability ([2]; 10 µM, both media conditions, 24 h): around 40%
O=C(CCCN1CCC(O)(c2ccc(Cl)cc2)CC1)c1ccc(F)cc1 [Haloperidol]	20 nM								78.6 µM	26 µM			57.5 µM	26.2 µM	% MMP ([8]; 20 μM): 88%; % O2 consumption ([8]; 20 μM): 85%; % MMP ([8]; 50 μM): 69%; % O2 consumption ([8]; 50 μM): 77%
Nc1nnc(-c2cccc(Cl)c2Cl)c(N)n1 [Lamotrigine]	4000 nM	14 µM			75.7 µM	> 100 µM	> 100 µM	> 100 µM	> 100 µM			> 100 µM	> 100 µM		IC50 [4, 17]: 332 µM; IC50 [5, 17]: 381 µM; Effect on cell viability / ATP in Glu and Gal media (in words) [2]: no cytotoxicity
Cc1cc2c(s1)Nc1ccccc1N=C2N1CCN(C)CC1 [Olanzapine]	20 nM														% MMP ([8]; 20 μM): 92%; % O2 consumption ([8]; 20 μM): 90%; decrease in the MMP ([8]; 50 µM): 10%; % MMP ([8]; 50 μM): 90%; % O2 consumption ([8]; 50 μM): 92%; % MMP ([8]; 50 μM, listed as olanzapine): mild dissipation of the membrane potential
CCC1(c2ccccc2)C(=O)NC(=O)NC1=O [Phenobarbital]									> 100 µM				> 100 µM		AC50 [3, 20]: > 100 µM; AC50 ([3]; HepG2, read-out: AC50 ECAR): > 100 µM; AC50 ([3]; HepG2, read-out: AC50 OCR): > 100 µM; AC50 [3, 21]: > 100 µM; AC50 [3, 22]: > 100 µM
O=C1NC(=O)C(c2ccccc2)(c2ccccc2)N1 [Phenytoin]	30000 nM	197 µM	90.9 µM	1.45 µM	> 200 µM	> 200 µM	> 200 µM	26.6 µM	> 200 µM			> 200 µM	> 200 µM		minimal effective concentration [3, 10]: 138 µM
CCC1(c2ccccc2)C(=O)NCNC1=O [Primidone]					> 100 µM	> 100 µM	> 100 µM	> 100 µM	> 100 µM			> 100 µM	> 100 µM		
OCCOCCN1CCN(C2=Nc3ccccc3Sc3ccccc32)CC1 [Quetiapine]	1880 nM	92.3 µM	19 µM	26.1 µM	> 150 µM		> 150 µM	124 µM	79 µM	57.7 µM			76.7 µM	49.3 µM	AC50 [6]: > 150 µM
COC(=O)[C@H]1[C@H]2C[C@@H]3c4[nH]c5cc(OC)ccc5c4CCN3C[C@H]2C[C@@H](OC(=O)c2cc(OC)c(OC)c(OC)c2)[C@@H]1OC [Reserpine]	0.4 nM	59.4 µM	60.3 µM		77.3 µM		> 100 µM		79 µM	19 µM	30 µM	36.8 µM	48.9 µM	6.68 µM	
C=C(C)[C@H]1Cc2c(ccc3c2O[C@@H]2COc4cc(OC)c(OC)cc4[C@@H]2C3=O)O1 [Rotenone]									0.00605 µM	0.002 µM			27.8 µM	0.29 µM	AC50 [6]: 0.0071 µM; AC50 [3, 20]: 0.0459 µM; AC50 ([3]; HepG2, read-out: AC50 ECAR): > 1 µM; AC50 ([3]; HepG2, read-out: AC50 OCR): 0.0433 µM; AC50 [3, 21]: 0.213 µM; AC50 [3, 22]: 0.0106 µM; minimal effective concentration ([3]; HepG2, read-out: MEC ATP Production): 0.0159 µM; minimal effective concentration ([3]; HepG2, read-out: MEC ECAR): 0.0274 µM; minimal effective concentration ([3]; HepG2, read-out: MEC OCR): 0.0053 µM; minimal effective concentration ([3]; HepG2, read-out: MEC Proton Leak): 0.012 µM; minimal effective concentration ([3]; HepG2, read-out: MEC Reserve Capacity): < 0.003 µM
C=CC(N)CCC(=O)O (stereo not drawn) [Vigabatrin]	4000 nM				> 1000 µM	> 1000 µM	> 1000 µM	> 1000 µM	> 1000 µM			> 1000 µM	> 1000 µM		
O=C1Cc2cc(CCN3CCN(c4nsc5ccccc45)CC3)c(Cl)cc2N1 [Ziprasidone]	110 nM	0.95 µM			> 12.7 µM				> 40 µM	28.3 µM	0.12 µM	2.19 µM			IC50 ([4]; pig brain mitochondria): 188 µM; IC50 ([5]; pig brain mitochondria): 86 µM
